Experimental findings from patent US10251819B2, “Amphiphilic polymer” (LG Chem, Ltd., priority 2015, dated 2019) are described below.

This data set can be described thus: Percutaneous absorption test of genistein-loaded amphiphilic polymer solution, Franz diffusion cell. The format is in vitro ADME, porcine. How it is done: The percutaneous absorption of genistein of the amphiphilic polymer solution in which genistein was loaded and which was prepared as above was evaluated using porcine skin (2×2 cm, thickness: 1000 μm) and a Franz diffusion cell (FIG. 2). A phosphate buffered saline (PBS) solution containing 30 wt % of dipropylene glycol (DPG) was used as an aqueous solution (acceptor solution) to maintain a sink condition with respect to genistein. 0.2 g of the amphiphilic polymer solution on which genistein was loaded was loaded in a Franz diffusion cell on which the porcine skin was mounted, and the test was performed at 32° C. similar to a skin temperature for 24 hours. Skin tissue into which genistein was absorbed was pulverized and extracted to analyze the content of genistein absorbed into the skin tissue and the content of genistein absorbed into the acceptor solution through HPLC, and the results are shown in Table 3.

For the substance “polycaprolactone (B)-polyethylene glycol (A)-polycaprolactone (B) copolymer [Comparative Example 1]”, the Skin penetration amount is on record as 0.15 μg/cm^2 and the Skin penetration ratio turned out to be 0.09%.
